Laboratory results published in PubChem BioAssay AID2060492 (Molecular Pharmacology Branch, DTP, NCI, 2025).

Test system: 695427-040-R-J1-PDC complex spheroids, viability percent T/C
Assay: Anticancer human tumor 695427-040-R-J1-PDC patient-derived colon adenocarcinoma cell line growth inhibition [GQUAD]
Settings: for IC50: curve of first compound; for viability, T/C: stronger effect = lower value
Summary of the method: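 Viability of tumor cells grown as complex spheroids with endothelial and stromal cells, exposed to drug combinations. Top concentration at or near clinical Cmax (else 10 microM), diluted in half-log increments.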

[1] = second compound 0.0316 µM, first compound 0.0316 µM
[2] = second compound 0.0316 µM, first compound 0.1 µM
[3] = second compound 0.0316 µM, first compound 0.316 µM
[4] = second compound 0.0316 µM, first compound 1 µM
[5] = second compound 0.0316 µM, first compound 3.16 µM
[6] = second compound 0.0316 µM, first compound 10 µM
[7] = second compound 0.1 µM, first compound 0.0316 µM
[8] = second compound 0.1 µM, first compound 0.1 µM
[9] = second compound 0.1 µM, first compound 0.316 µM
[10] = second compound 0.1 µM, first compound 1 µM
[11] = second compound 0.1 µM, first compound 3.16 µM
[12] = second compound 0.1 µM, first compound 10 µM
[13] = second compound 0.316 µM, first compound 0.0316 µM
[14] = second compound 0.316 µM, first compound 0.1 µM
[15] = second compound 0.316 µM, first compound 0.316 µM
[16] = second compound 0.316 µM, first compound 1 µM
[17] = second compound 0.316 µM, first compound 3.16 µM
[18] = second compound 0.316 µM, first compound 10 µM
[19] = second compound 1 µM, first compound 0.0316 µM
[20] = second compound 1 µM, first compound 0.1 µM
[21] = second compound 1 µM, first compound 0.316 µM
[22] = second compound 1 µM, first compound 1 µM
[23] = second compound 1 µM, first compound 3.16 µM
[24] = second compound 1 µM, first compound 10 µM
[25] = second compound 3.16 µM, first compound 0.0316 µM
[26] = second compound 3.16 µM, first compound 0.1 µM
[27] = second compound 3.16 µM, first compound 0.316 µM
[28] = second compound 3.16 µM, first compound 1 µM
[29] = second compound 3.16 µM, first compound 3.16 µM
[30] = second compound 3.16 µM, first compound 10 µM
[31] = second compound 10 µM, first compound 0.0316 µM
[32] = second compound 10 µM, first compound 0.1 µM
[33] = second compound 10 µM, first compound 0.316 µM
[34] = second compound 10 µM, first compound 1 µM
[35] = second compound 10 µM, first compound 3.16 µM
[36] = second compound 10 µM, first compound 10 µM
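Also: spheroids exposed to compounds for seven days before readout.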

**Q.** For C=CC(=O)N1CCN(c2nc(=O)n(-c3c(C)ccnc3C(C)C)c3nc(-c4c(O)cccc4F)c(F)cc23)C(C)C1 (centres undefined) + CN(C)c1ccc(Nc2c3ccc(NC(=O)CCN4CCCC4)cc3nc3cc(NC(=O)CCN4CCCC4)ccc23)cc1, which IC50 (second compound 0.0316 µM) is on record?
**A.** > 10 µM

**Q.** And the IC50 (second compound 0.1 µM)?
**A.** > 10 µM

**Q.** And the IC50 (second compound 0.316 µM)?
**A.** > 10 µM

**Q.** What about the IC50 (second compound 1 µM) of the same molecule?
**A.** > 10 µM

**Q.** And the IC50 (second compound 3.16 µM)?
**A.** > 10 µM

**Q.** What about the IC50 (second compound 10 µM) of the same molecule?
**A.** > 10 µM

**Q.** What about the viability, T/C [1] of the same molecule?
**A.** 107%

**Q.** And the viability, T/C [2]?
**A.** 109%

**Q.** And the viability, T/C [3]?
**A.** 102%

**Q.** And the viability, T/C [4]?
**A.** 104%

**Q.** And the viability, T/C [5]?
**A.** 106%

**Q.** What about the viability, T/C [6] of the same molecule?
**A.** 112%

**Q.** And the viability, T/C [7]?
**A.** 104%

**Q.** And the viability, T/C [8]?
**A.** 95%

**Q.** And the viability, T/C [9]?
**A.** 104%

**Q.** And the viability, T/C [10]?
**A.** 94.6%

**Q.** What about the viability, T/C [11] of the same molecule?
**A.** 103%

**Q.** And the viability, T/C [12]?
**A.** 110%

**Q.** What about the viability, T/C [13] of the same molecule?
**A.** 113%

**Q.** And the viability, T/C [14]?
**A.** 113%

**Q.** And the viability, T/C [15]?
**A.** 107%

**Q.** What about the viability, T/C [16] of the same molecule?
**A.** 102%

**Q.** What about the viability, T/C [17] of the same molecule?
**A.** 106%

**Q.** And the viability, T/C [18]?
**A.** 108%

**Q.** What about the viability, T/C [19] of the same molecule?
**A.** 97.9%

**Q.** And the viability, T/C [20]?
**A.** 106%

**Q.** What about the viability, T/C [21] of the same molecule?
**A.** 99.7%

**Q.** What about the viability, T/C [22] of the same molecule?
**A.** 107%

**Q.** And the viability, T/C [23]?
**A.** 108%

**Q.** And the viability, T/C [24]?
**A.** 107%

**Q.** And the viability, T/C [25]?
**A.** 107%

**Q.** And the viability, T/C [26]?
**A.** 90.9%

**Q.** And the viability, T/C [27]?
**A.** 100%

**Q.** What about the viability, T/C [28] of the same molecule?
**A.** 98.5%

**Q.** And the viability, T/C [29]?
**A.** 101%

**Q.** What about the viability, T/C [30] of the same molecule?
**A.** 100%

**Q.** What about the viability, T/C [31] of the same molecule?
**A.** 99.2%

**Q.** What about the viability, T/C [32] of the same molecule?
**A.** 89.7%

**Q.** And the viability, T/C [33]?
**A.** 89.7%

**Q.** What about the viability, T/C [34] of the same molecule?
**A.** 92%

**Q.** And the viability, T/C [35]?
**A.** 99.1%

**Q.** And the viability, T/C [36]?
**A.** 90.6%

**Q.** How did the IC50 (second compound 0.0316 µM) turn out when COc1cc(C2c3cc4c(cc3C(OC3OC5COC(C)OC5C(O)C3O)C3COC(=O)C23)OCO4)cc(OC)c1O (centres undefined) + CN(C)c1ccc(Nc2c3ccc(NC(=O)CCN4CCCC4)cc3nc3cc(NC(=O)CCN4CCCC4)ccc23)cc1 was run?
**A.** > 10 µM

**Q.** What about the IC50 (second compound 0.1 µM) of the same molecule?
**A.** > 10 µM

**Q.** What about the IC50 (second compound 0.316 µM) of the same molecule?
**A.** > 10 µM

**Q.** And the IC50 (second compound 1 µM)?
**A.** > 10 µM

**Q.** What about the IC50 (second compound 3.16 µM) of the same molecule?
**A.** > 10 µM

**Q.** What about the IC50 (second compound 10 µM) of the same molecule?
**A.** > 10 µM

**Q.** And the viability, T/C [1]?
**A.** 108%

**Q.** And the viability, T/C [2]?
**A.** 90.1%

**Q.** And the viability, T/C [3]?
**A.** 95.7%

**Q.** And the viability, T/C [4]?
**A.** 97.8%

**Q.** What about the viability, T/C [5] of the same molecule?
**A.** 85.2%

**Q.** What about the viability, T/C [6] of the same molecule?
**A.** 80%

**Q.** What about the viability, T/C [7] of the same molecule?
**A.** 88.1%

**Q.** What about the viability, T/C [8] of the same molecule?
**A.** 91.6%

**Q.** What about the viability, T/C [9] of the same molecule?
**A.** 95.7%

**Q.** What about the viability, T/C [10] of the same molecule?
**A.** 83.5%

**Q.** And the viability, T/C [11]?
**A.** 89.8%

**Q.** What about the viability, T/C [12] of the same molecule?
**A.** 76.9%

**Q.** And the viability, T/C [13]?
**A.** 100%

**Q.** What about the viability, T/C [14] of the same molecule?
**A.** 91.5%

**Q.** What about the viability, T/C [15] of the same molecule?
**A.** 88.1%

**Q.** What about the viability, T/C [16] of the same molecule?
**A.** 89.2%

**Q.** What about the viability, T/C [17] of the same molecule?
**A.** 90.5%

**Q.** What about the viability, T/C [18] of the same molecule?
**A.** 76.7%

**Q.** What about the viability, T/C [19] of the same molecule?
**A.** 88.9%

**Q.** And the viability, T/C [20]?
**A.** 97.4%

**Q.** And the viability, T/C [21]?
**A.** 94.4%

**Q.** What about the viability, T/C [22] of the same molecule?
**A.** 93.3%

**Q.** And the viability, T/C [23]?
**A.** 88.1%

**Q.** What about the viability, T/C [24] of the same molecule?
**A.** 72.6%

**Q.** What about the viability, T/C [25] of the same molecule?
**A.** 89.1%

**Q.** What about the viability, T/C [26] of the same molecule?
**A.** 90.9%

**Q.** And the viability, T/C [27]?
**A.** 96.7%

**Q.** And the viability, T/C [28]?
**A.** 90.3%

**Q.** What about the viability, T/C [29] of the same molecule?
**A.** 91%

**Q.** And the viability, T/C [30]?
**A.** 76.5%

**Q.** And the viability, T/C [31]?
**A.** 87.2%

**Q.** And the viability, T/C [32]?
**A.** 77.4%

**Q.** What about the viability, T/C [33] of the same molecule?
**A.** 81.2%

**Q.** What about the viability, T/C [34] of the same molecule?
**A.** 80.8%

**Q.** And the viability, T/C [35]?
**A.** 77.5%

**Q.** And the viability, T/C [36]?
**A.** 66.4%
